Biological target: Dual-Specificity-Tyrosine-Phosphorylation-Regulated Kinase 1B (DYRK1B) (Homo sapiens, UniProt Q9Y463)
Experiment: radiometric […]-ATP kinase assay with recombinant DYRK1B and DYRKtide substrate ([…] ATP)
Assay type: biochemical

Chain of Dual-Specificity-Tyrosine-Phosphorylation-Regulated Kinase 1B (DYRK1B) (Q9Y463 whole entry): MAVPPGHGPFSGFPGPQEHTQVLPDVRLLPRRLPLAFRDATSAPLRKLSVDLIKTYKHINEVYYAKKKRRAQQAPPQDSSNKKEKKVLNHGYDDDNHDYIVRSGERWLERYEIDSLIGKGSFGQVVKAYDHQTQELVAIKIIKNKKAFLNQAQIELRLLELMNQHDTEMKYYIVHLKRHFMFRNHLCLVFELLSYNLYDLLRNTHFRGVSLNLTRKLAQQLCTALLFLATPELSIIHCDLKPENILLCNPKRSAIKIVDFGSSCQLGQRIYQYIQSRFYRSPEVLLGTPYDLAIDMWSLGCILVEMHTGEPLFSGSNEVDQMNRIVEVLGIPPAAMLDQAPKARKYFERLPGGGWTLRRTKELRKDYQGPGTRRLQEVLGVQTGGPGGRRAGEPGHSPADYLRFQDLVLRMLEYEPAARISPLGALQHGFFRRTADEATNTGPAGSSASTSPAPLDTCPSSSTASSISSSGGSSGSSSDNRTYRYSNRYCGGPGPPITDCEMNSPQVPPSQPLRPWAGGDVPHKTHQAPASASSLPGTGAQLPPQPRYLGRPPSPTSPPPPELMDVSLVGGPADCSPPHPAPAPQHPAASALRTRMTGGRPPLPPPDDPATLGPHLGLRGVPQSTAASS

IC50: 90 nM
SMILES: O=C(Nc1nc2cc(C(F)(F)F)ccc2[nH]1)c1csc(-c2ccc3c(c2)CCO3)n1 [DYRKi]
